# Measured values taken from PubChem BioAssay (NCI).
#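 Assay format: 96-well plates, 48-hour exposure. Definition used: TGI = concentration required for complete inhibition of growth.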
# Legend:
# Test in all cases: NCI tumour cell line growth inhibition, 48 h
# K-562 leukemia = tested on: K-562 leukemia
# M14 melanoma = tested on: M14 melanoma
# PC-3 prostate = tested on: PC-3 prostate
# NCI-H460 lung = tested on: NCI-H460 lung
# MDA-N = tested on: MDA-N
# MALME-3M melanoma = tested on: MALME-3M melanoma
# SN12C renal = tested on: SN12C renal
# OVCAR-3 ovarian = tested on: OVCAR-3 ovarian
# SF-539 CNS = tested on: SF-539 CNS
# SR leukemia = tested on: SR leukemia
Compound,TGI (K-562 leukemia) [µM],TGI (M14 melanoma) [µM],TGI (PC-3 prostate) [µM],TGI (NCI-H460 lung) [µM],TGI (MDA-N) [µM],TGI (MALME-3M melanoma) [µM],TGI (SN12C renal) [µM],TGI (OVCAR-3 ovarian) [µM],TGI (SF-539 CNS) [µM],TGI (SR leukemia) [µM]
Cc1nc2ccc(Cl)cc2c(-n2ccnc2)c1CCn1ccnc1,89.3,> 100,72.1,> 100,84.7,97,> 100,> 100,> 100,20.5
CN(/N=C1\C(=O)Nc2ccccc21)c1ccccc1,> 100,> 100,> 100,> 100,> 100,> 100,,> 100,> 100,> 100
Cc1ccc2c(c1C)C(=O)C1(Cc3cc4c(cc3C1=O)CCC4)C2 (stereo unspecified),> 100,> 100,> 100,> 100,> 100,> 100,> 100,> 100,> 100,> 100
O=C(CC(NC(=O)C(F)(F)F)C(=O)O)OCc1ccccc1 (stereo unspecified),> 100,> 100,> 100,> 100,> 100,> 100,> 100,> 100,> 100,> 100
C[n+]1cc2cc(O)c(O)cc2c2ccc3cc(O)c(O)cc3c21,> 37.4,> 100,34.4,> 60.2,> 100,12.9,26,7.96,7.77,9.53
CN(C)CCn1c(=O)c2ccc(NCCCN(C)CCCNc3ccc4c(=O)n(CCN(C)C)c(=O)n5c6ccc(O)cc6c(=O)c3c45)c3c(=O)c4cc(O)ccc4n(c1=O)c23,0.255,0.805,0.31,0.234,0.251,0.598,0.553,,1.84,0.642
Cc1nnc2n(c1=O)CCCN2C,> 100,> 100,> 100,> 100,> 100,> 100,> 100,> 100,> 100,> 100
Cc1c2cccc-2c2cc(O)c3ccccc3c2n1-c1ccc(N(C)C)cc1,26.8,27.9,23.9,59,36.9,29,33.9,19.1,27.9,26.4
O=C(ON=C1c2ccccc2C(Br)C(Br)c2ccccc21)c1ccccc1 (stereo unspecified),8.98,32.6,40.2,18.8,34.5,37.1,42.9,28.7,13.9,9.12
O=CC(I)=C(c1ccccc1)c1ccccc1,> 71,35.2,29.3,32.8,35.4,30.8,45.3,17.7,45.3,27.9
CCOC1C=CC(=O)C(CO)O1 (stereo unspecified),26,31.8,28.9,30.9,31.5,25.8,26.8,19.1,23.8,6.63
Clc1cccc(-c2sc(-c3cccs3)cc2Cc2cccs2)c1,> 10,> 10,> 10,> 10,> 10,> 10,> 10,,> 10,> 10
Cc1ccc2cccc(-c3cccc4ccccc34)c2n1,21,55.6,> 100,89,22.7,> 100,> 100,> 100,> 100,35.8
COC(=O)/C=C(/C=C1/C(C#N)=C(N)N(c2ccc(Cl)cc2)C1(C)/C(=C\C(=O)OC)C(=O)OC)C(=O)OC (stereo unspecified),> 100,39.1,35,46.3,30.8,58.8,37.6,42.3,32.7,> 100
COc1ccc2ccc3oc(=O)c(C)cc3c2c1,> 100,> 100,> 100,> 100,> 100,> 100,> 100,> 100,> 100,> 100
CN(CCN1CCCC1)C1CCc2cc(Cl)c(Cl)cc2C1 (stereo unspecified),> 100,31.5,52.4,31.5,26.2,33.6,30.9,32.1,31.4,74.5
COC(=O)CNC(=O)C(CSC(=O)OCC1c2ccccc2-c2ccccc21)NC(=O)CCC(NC(=O)OCC1c2ccccc2-c2ccccc21)C(=O)OC (stereo unspecified),82.7,58.9,> 100,59.2,38.5,76.8,> 100,32,37.8,37.5

Compound,TGI (K-562 leukemia) [µM],TGI (M14 melanoma) [µM],TGI (PC-3 prostate) [µM],TGI (NCI-H460 lung) [µM],TGI (MDA-N) [µM],TGI (MALME-3M melanoma) [µM],TGI (SN12C renal) [µM],TGI (OVCAR-3 ovarian) [µM],TGI (SF-539 CNS) [µM],TGI (SR leukemia) [µM]
OCc1cn(Cc2ccccc2)c2ccccc12,> 100,> 54.3,78.2,35.8,> 65.5,19.5,> 46.8,6.96,> 69,> 100
COc1ccc2nc(NC(=O)/C(C#N)=C/c3ccccc3)sc2c1,> 95.2,> 100,> 100,> 100,> 100,> 100,> 100,> 100,> 100,21.9
CCCCCCN(CCCCCC)C(=S)N/N=C(\C)c1ccccn1,4.64,3.29,1.88,2.97,5.56,3.17,2.56,2.83,2.77,11.5
Cn1c2ccccc2c2ccc3c(c21)C(=O)c1ccc2c4ccccc4n(C)c2c1C3=O,> 100,> 100,> 100,> 100,> 100,> 100,> 100,> 100,> 100,> 100
CN(C)CCN(c1ccccn1)c1ccccn1,> 100,> 100,> 100,> 100,> 100,> 100,> 100,> 100,> 100,> 100
COC(=O)/C=C(\C)CC/C=C(\C)CCC1OC1(C)C (stereo unspecified),22,22.9,17.4,24.2,21.9,29.1,20.8,21.8,24.1,23.4
CCOC(=O)CSc1nc(N)c2c(-c3ccccc3)c3c(nc2n1)CCCC3,> 100,> 100,> 100,> 100,> 100,> 100,> 100,> 100,> 100,> 100
CC(C)C(Br)CCC1=CCC(Br)(Br)C1 (stereo unspecified),> 100,12.9,28.5,31.7,10.4,27.9,15.2,25.7,33.7,> 100
S=C(Cc1ccc2c(c1)Sc1ccccc1O2)N1CCOCC1,> 100,> 100,> 100,> 100,> 100,90.2,> 100,> 100,61.1,> 100
O=c1oc2ccc3ccccc3c2cc1-c1cn2ccsc2n1,82.4,60.5,96.4,> 100,46.3,41.1,83.8,43.8,51.2,46.9
CC(C)NC(=O)OCc1c(COC(=O)NC(C)C)n(C)c2c1ccc1sccc12,> 52.2,36.7,43.7,27.2,42.8,13.6,76.2,36.9,26,> 64.6
COc1cccc(C2c3cc4c(cc3OC(O)C2C)OCO4)c1OC (stereo unspecified),15.5,50.9,32.1,25.1,58.3,32.9,64,17.9,26.8,11.3
Cc1c(C)n(-c2ccccc2)c2nc(S(C)=O)nc(S(C)=O)c12 (stereo unspecified),4.28,6.45,19.7,43.4,13.6,4.09,24.6,6.77,14.7,2.82
Cc1nc(N)c(N2CCN(C#N)CC2)c(=O)[nH]1,> 100,> 100,> 100,> 100,> 100,> 100,> 100,> 100,> 100,> 100
CC(C)Oc1cccc(N2C(n3ccnc3)=Nc3ccncc3S2(=O)=O)c1,36.6,28.2,22.7,37.4,25.4,26.6,29.2,21.9,20.1,14.9
O=C(NCc1ccccc1)c1cc2ccccc2oc1=Nc1cccc(C(F)(F)F)c1,> 100,> 100,> 100,> 100,> 100,> 100,62.7,> 100,,66.1
